According to patent publication US9796711B2, “Substituted pyrazolo[3,4-b]pyridin-6-carboxylic acids and method of use” (AbbVie S.àr.l., priority 2015, dated 2017):

What was measured:
[1] = target: T1, ΔF508-CFTR (Homo sapiens, UniProt P13569, DEL508-508); test: CFTR cell surface levels using HRP-tagged ΔF508-CFTR expressing CFBE cells, intrinsic corrector capacity; format: cell-based
T1 construct: host or cells: CFBE41o-, doxycycline-inducible
Outline: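 Here the cells express ΔF508-CFTR with horseradish peroxidase inserted in extracellular loop 4, so only rescued channel at the surface gives luminescent signal. Compounds act on their own, 20 h at the reduced temperature of 33 °C; values are percent activity relative to DMSO and a 3 μM corrector.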

[2] = target: T1, ΔF508-CFTR; test: CFTR cell surface levels using HRP-tagged ΔF508-CFTR expressing CFBE cells, in the presence of a co-corrector; format: cell-based
Outline: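 Cells were seeded with 0.5 μg/mL doxycycline and held 68 h at 37 °C. Test compounds plus 3 μM co-corrector (final 0.1% DMSO) were then added for 20 h at 33 °C. Washed cells received HRP substrate, and luminescence was normalized between DMSO and 3 μM co-corrector controls.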

[3] = HRP-tagged ΔF508-CFTR CFBE41o- cells, compounds alone (intrinsic corrector capacity), 20 hours at 33° C., positive control 3 μM corrector
[4] = HRP-tagged ΔF508-CFTR CFBE41o- cells, compounds alone (intrinsic corrector capacity), 20 hours at 33° C., read-out: EC50
[5] = HRP-tagged ΔF508-CFTR expressing CFBE cells, in the presence of 3 μM co-corrector
[6] = HRP-tagged ΔF508-CFTR expressing CFBE cells, in the presence of 3 μM co-corrector, read-out: EC50
[7] = HRP-tagged ΔF508-CFTR expressing CFBE cells, intrinsic corrector capacity (no co-corrector), 33° C., 20 hours
[8] = HRP-tagged ΔF508-CFTR expressing CFBE cells, intrinsic corrector capacity (no co-corrector), 33° C., 20 hours, read-out: EC50

T1 sequence (P13569 with tags, fused parts or gaps DEL508-508): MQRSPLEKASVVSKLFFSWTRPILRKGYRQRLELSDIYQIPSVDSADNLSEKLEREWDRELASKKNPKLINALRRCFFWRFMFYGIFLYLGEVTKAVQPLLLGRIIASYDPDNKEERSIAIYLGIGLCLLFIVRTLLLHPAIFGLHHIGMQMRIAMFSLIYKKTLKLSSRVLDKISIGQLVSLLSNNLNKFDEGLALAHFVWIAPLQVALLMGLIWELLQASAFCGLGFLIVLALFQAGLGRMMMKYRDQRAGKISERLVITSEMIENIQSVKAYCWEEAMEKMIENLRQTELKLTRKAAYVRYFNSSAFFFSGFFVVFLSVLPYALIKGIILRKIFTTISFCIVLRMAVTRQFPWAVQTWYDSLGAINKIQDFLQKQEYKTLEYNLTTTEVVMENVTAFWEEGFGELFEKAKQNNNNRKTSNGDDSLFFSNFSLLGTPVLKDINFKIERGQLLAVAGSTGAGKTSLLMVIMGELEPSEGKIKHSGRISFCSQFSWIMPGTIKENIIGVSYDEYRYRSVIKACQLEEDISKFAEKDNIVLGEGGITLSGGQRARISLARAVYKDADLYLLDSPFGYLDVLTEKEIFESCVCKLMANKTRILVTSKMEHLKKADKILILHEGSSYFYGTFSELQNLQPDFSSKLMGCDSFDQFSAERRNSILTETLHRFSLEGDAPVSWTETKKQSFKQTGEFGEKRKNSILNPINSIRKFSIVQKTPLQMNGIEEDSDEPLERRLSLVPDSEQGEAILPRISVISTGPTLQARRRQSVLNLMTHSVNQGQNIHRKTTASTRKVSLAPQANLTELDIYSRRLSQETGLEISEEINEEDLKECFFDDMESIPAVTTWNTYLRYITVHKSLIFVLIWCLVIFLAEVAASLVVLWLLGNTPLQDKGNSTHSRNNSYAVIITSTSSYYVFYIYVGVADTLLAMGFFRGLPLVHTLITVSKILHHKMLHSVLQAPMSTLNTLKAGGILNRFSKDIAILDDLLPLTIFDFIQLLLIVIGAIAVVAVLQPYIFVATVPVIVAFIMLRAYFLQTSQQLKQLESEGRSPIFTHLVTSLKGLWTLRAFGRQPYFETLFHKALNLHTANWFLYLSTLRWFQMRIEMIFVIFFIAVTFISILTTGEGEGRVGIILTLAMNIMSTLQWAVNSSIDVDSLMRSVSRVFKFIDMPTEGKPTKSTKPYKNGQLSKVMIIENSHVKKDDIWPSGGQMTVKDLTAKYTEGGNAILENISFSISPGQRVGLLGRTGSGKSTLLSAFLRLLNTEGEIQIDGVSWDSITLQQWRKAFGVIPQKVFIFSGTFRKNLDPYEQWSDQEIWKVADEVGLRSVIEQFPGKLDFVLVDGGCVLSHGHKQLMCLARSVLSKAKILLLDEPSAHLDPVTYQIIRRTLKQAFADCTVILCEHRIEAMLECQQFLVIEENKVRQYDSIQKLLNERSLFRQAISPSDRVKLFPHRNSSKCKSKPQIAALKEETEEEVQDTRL

Compound | % Activation [1, 3] [%] | EC50 [1, 4] [nM] | % Activation [2, 5] [%] | EC50 [2, 6] [nM] | % Activation [1, 7] [%] | EC50 [1, 8] [nM] | EC50 [1] [nM] | EC50 [2] [nM]
CO[C@H]1CCC[C@@H](n2nc(C(C)C)c3c(-c4ccc(N5CCOCC5)cc4)cc(C(=O)O)nc32)C1 [compound 205, 1-[(1R,3S)-3-methoxycyclohexyl]-4-[4-(morpholin-4-yl)phenyl]-3-(propan-2-yl)-1H-pyrazolo[3,4-b]pyridine-6-carboxylic acid] | 109 | 1110 | 261.5 | 819 | – | – | – | –
Cc1cccc(-n2nc(C(C)C)c3c(N4CCC(CO)CC4)cc(C(=O)O)nc32)c1 [compound 213, 4-[4-(hydroxymethyl)piperidin-1-yl]-1-(3-methylphenyl)-3-(propan-2-yl)-1H-pyrazolo[3,4-b]pyridine-6-carboxylic acid] | 247.33 | 679 | 456.97 | 382 | – | – | – | –
N#CC1CCN(c2ccc(-c3cc(C(=O)O)nc4c3c(C3CCC3)nn4C3CCCCC3)cn2)CC1 [compound 220, 4-[6-(4-cyanopiperidin-1-yl)pyridin-3-yl]-3-cyclobutyl-1-cyclohexyl-1H-pyrazolo[3,4-b]pyridine-6-carboxylic acid] | 245.37 | 786 | 470.77 | 369 | – | – | – | –
CC(C)c1nn(-c2cccc(N3CCCC3)c2)c2nc(C(=O)O)cc(-c3ccc(N4CCC(C#N)CC4)nc3)c12 [compound 222, 4-[6-(4-cyanopiperidin-1-yl)pyridin-3-yl]-3-(propan-2-yl)-1-[3-(pyrrolidin-1-yl)phenyl]-1H-pyrazolo[3,4-b]pyridine-6-carboxylic acid] | 429.93 | 433 | 612.47 | 268 | – | – | – | –
COCC1CCN(c2cc(C(=O)O)nc3c2c(C(C)C)nn3-c2cccc(C)c2)CC1 [compound 227, 4-[4-(methoxymethyl)piperidin-1-yl]-1-(3-methylphenyl)-3-(propan-2-yl)-1H-pyrazolo[3,4-b]pyridine-6-carboxylic acid] | 305.45 | 666 | 452.6 | 340 | – | – | – | –
COCCC1CCN(c2cc(C(=O)O)nc3c2c(C(C)C)nn3-c2cccc(C)c2)CC1 [compound 228, 4-[4-(2-methoxyethyl)piperidin-1-yl]-1-(3-methylphenyl)-3-(propan-2-yl)-1H-pyrazolo[3,4-b]pyridine-6-carboxylic acid] | 297.15 | 680 | 475.1 | 397 | – | – | – | –
CC(C)c1nn(-c2cccc(N3CCOCC3)n2)c2nc(C(=O)O)cc(-c3ccc(N4CCOCC4)cc3)c12 [compound 244, 4-[4-(morpholin-4-yl)phenyl]-1-[6-(morpholin-4-yl)pyridin-2-yl]-3-(propan-2-yl)-1H-pyrazolo[3,4-b]pyridine-6-carboxylic acid] | 320.17 | 473 | 514.48 | 458 | – | – | – | –
CC(C)c1nn(-c2cc(F)cc(F)c2)c2nc(C(=O)O)cc(-c3ccc(N4CCOCC4)cc3)c12 [compound 268, 1-(3,5-difluorophenyl)-4-[4-(morpholin-4-yl)phenyl]-3-(propan-2-yl)-1H-pyrazolo[3,4-b]pyridine-6-carboxylic acid] | 251.82 | 616 | 425.68 | 394 | – | – | – | –
CN(C)C[C@@H](F)C1CCN(c2cc(C(=O)O)nc3c2c(C2CCC2)nn3-c2ccccc2)CC1 [compound 456, 3-cyclobutyl-4-{4-[(1S)-2-(dimethylamino)-1-fluoroethyl]piperidin-1-yl}-1-phenyl-1H-pyrazolo[3,4-b]pyridine-6-carboxylic acid] | – | – | 414.5 | 335 | 253.65 | 845 | – | –
CCOC(=O)N1CCN(c2cc(C(=O)O)nc3c2c(C2CCC2)nn3-c2ccccc2)CC1 [compound 539, 3-cyclobutyl-4-[4-(ethoxycarbonyl)piperazin-1-yl]-1-phenyl-1H-pyrazolo[3,4-b]pyridine-6-carboxylic acid] | – | – | 564.8 | 198 | 366.3 | 370 | – | –
O=C(O)c1cc(N2CCC(CN3CCCC3)CC2)c2c(C3CCC3)nn(-c3ccccc3)c2n1 [compound 557, 3-cyclobutyl-1-phenyl-4-{4-[(pyrrolidin-1-yl)methyl]piperidin-1-yl}-1H-pyrazolo[3,4-b]pyridine-6-carboxylic acid] | – | – | 418.2 | 200 | 221.7 | 444 | – | –
O=C(O)c1cc(N2CCC(N3CCOCC3)CC2)c2c(C3CCC3)nn(-c3ccccc3)c2n1 [compound 560, 3-cyclobutyl-4-[4-(morpholin-4-yl)piperidin-1-yl]-1-phenyl-1H-pyrazolo[3,4-b]pyridine-6-carboxylic acid] | – | – | 437.33 | – | 265.05 | – | 393 | 171
O=C(O)c1cc(N2CCC(CCN3CCCC3)CC2)c2c(C3CCC3)nn(-c3ccccc3)c2n1 [compound 574, 3-cyclobutyl-1-phenyl-4-{4-[2-(pyrrolidin-1-yl)ethyl]piperidin-1-yl}-1H-pyrazolo[3,4-b]pyridine-6-carboxylic acid] | – | – | 469.5 | 190 | 294 | 479 | – | –
O=C(O)c1cc(N2CCC(CCN3CCOCC3)CC2)c2c(C3CCC3)nn(-c3ccccc3)c2n1 [compound 575, 3-cyclobutyl-4-{4-[2-(morpholin-4-yl)ethyl]piperidin-1-yl}-1-phenyl-1H-pyrazolo[3,4-b]pyridine-6-carboxylic acid] | – | – | 431.9 | – | 268.4 | – | 512 | 209
O=C(O)c1cc(N2CCC(N3CCCCC3)CC2)c2c(C3CCC3)nn(-c3ccccc3)c2n1 [compound 576, 4-([1,4′-bipiperidin]-1′-yl)-3-cyclobutyl-1-phenyl-1H-pyrazolo[3,4-b]pyridine-6-carboxylic acid] | – | – | 390.78 | – | 175.2 | – | 496 | 396
CC(C)c1nn(-c2ccc(F)cc2)c2nc(C(=O)O)cc(N3CCC(C(C)(C)O)CC3)c12 [compound 656, 1-(4-fluorophenyl)-4-[4-(2-hydroxypropan-2-yl)piperidin-1-yl]-3-(propan-2-yl)-1H-pyrazolo[3,4-b]pyridine-6-carboxylic acid] | – | – | 415.7 | 191 | 287.7 | 437 | – | –
O=C(O)c1cc(N2CCC(N3CCOCC3)CC2)c2c(C3CCC3)nn(-c3ccc(F)cc3)c2n1 [compound 679, 3-cyclobutyl-1-(4-fluorophenyl)-4-[4-(morpholin-4-yl)piperidin-1-yl]-1H-pyrazolo[3,4-b]pyridine-6-carboxylic acid] | – | – | 503.6 | 299 | 279.5 | 370 | – | –
CC(C1CCN(c2cc(C(=O)O)nc3c2c(C2CCC2)nn3-c2ccccc2)CC1)N1CCOCC1 (stereo not shown) [compound 683, 3-cyclobutyl-4-{4-[1-(morpholin-4-yl)ethyl]piperidin-1-yl}-1-phenyl-1H-pyrazolo[3,4-b]pyridine-6-carboxylic acid] | – | – | 600.53 | 60.7 | 395.1 | 141 | – | –
CC1CCN(CCC2CCN(c3cc(C(=O)O)nc4c3c(C3CCC3)nn4-c3ccccc3)CC2)CC1 [compound 687, 3-cyclobutyl-4-{4-[2-(4-methylpiperidin-1-yl)ethyl]piperidin-1-yl}-1-phenyl-1H-pyrazolo[3,4-b]pyridine-6-carboxylic acid] | – | – | 454 | 89.7 | 264.95 | 171 | – | –
CN1CCC2(CC1)CCN(c1cc(C(=O)O)nc3c1c(C1CCC1)nn3-c1ccccc1)CC2 [compound 699, 3-cyclobutyl-4-(9-methyl-3,9-diazaspiro[5.5]undecan-3-yl)-1-phenyl-1H-pyrazolo[3,4-b]pyridine-6-carboxylic acid] | – | – | 432 | 169 | 247.63 | 622 | – | –
O=C(O)c1cc(N2CCC(N3CCN(C4CC4)CC3)CC2)c2c(C3CCC3)nn(-c3ccccc3)c2n1 [compound 738, 3-cyclobutyl-4-[4-(4-cyclopropylpiperazin-1-yl)piperidin-1-yl]-1-phenyl-1H-pyrazolo[3,4-b]pyridine-6-carboxylic acid] | – | – | 472.1 | 110 | 267.6 | 245 | – | –
CC(C)c1nn(-c2ccc(F)cc2)c2nc(C(=O)O)cc(N3CCC(N4CCN(C5CC5)CC4)CC3)c12 [compound 754, 4-[4-(4-cyclopropylpiperazin-1-yl)piperidin-1-yl]-1-(4-fluorophenyl)-3-(propan-2-yl)-1H-pyrazolo[3,4-b]pyridine-6-carboxylic acid] | – | – | 467.3 | 153 | 254.1 | 385 | – | –
